Data from PubChem BioAssay AID248 (DTP/NCI, 2004).
Several values for one entry are separate records, joined by “and”; a condition that tells them apart may be missing. Equal values may be shown once. Toxic doses and inconclusive results are not listed. Cut-off read from the data, not from the text of the source: active = T/C of 150% or more; inactive = T/C below 125%.

System: L1210 leukemia ip in BDF1 mice, survival T/C
Assay: NCI In Vivo Anticancer Drug Screen. Data for tumor model L1210 Leukemia (intraperitoneal) in B6D2F1 (BDF1) mice
Conditions: endpoint: mean survival time, higher = longer survival
In short: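 Antitumor effect is assessed in tumor-bearing animals. Survival in the compound arm is compared with a vehicle-dosed control arm and expressed as their quotient.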

[1] = dose: 100.0 mg/kg/injection, schedule: Q04DX002 (ip), vehicle: Klucel (hydroxypropylcellulose) (HPC)
[2] = dose: 200.0 mg/kg/injection, schedule: Q04DX002 (ip), vehicle: Klucel (hydroxypropylcellulose) (HPC)
[3] = dose: 400.0 mg/kg/injection, schedule: Q04DX002 (ip), vehicle: Klucel (hydroxypropylcellulose) (HPC)
[4] = dose: 100.0 mg/kg/injection, schedule: Q01DX001 (ip), vehicle: saline
[5] = dose: 200.0 mg/kg/injection, schedule: Q01DX001 (ip), vehicle: saline
[6] = dose: 400.0 mg/kg/injection, schedule: Q01DX001 (ip), vehicle: saline
[7] = dose: 100.0 mg/kg/injection, schedule: Q01DX009 (ip), vehicle: saline
[8] = dose: 100.0 mg/kg/injection, schedule: Q04DX003 (ip), vehicle: saline
[9] = dose: 200.0 mg/kg/injection, schedule: Q01DX009 (ip), vehicle: saline
[10] = dose: 200.0 mg/kg/injection, schedule: Q04DX003 (ip), vehicle: saline
[11] = dose: 400.0 mg/kg/injection, schedule: Q01DX009 (ip), vehicle: saline
[12] = dose: 400.0 mg/kg/injection, schedule: Q04DX003 (ip), vehicle: saline
[13] = dose: 25.0 mg/kg/injection, schedule: Q01DX009 (ip), vehicle: saline
[14] = dose: 100.0 mg/kg/injection, schedule: Q01DX001 (ip), vehicle: carboxymethylcellulose (CMC)
[15] = dose: 200.0 mg/kg/injection, schedule: Q01DX001 (ip), vehicle: carboxymethylcellulose (CMC)
[16] = dose: 100.0 mg/kg/injection, schedule: Q01DX001 (ip), vehicle: Klucel (hydroxypropylcellulose) (HPC)
[17] = dose: 200.0 mg/kg/injection, schedule: Q01DX001 (ip), vehicle: Klucel (hydroxypropylcellulose) (HPC)
[18] = dose: 50.0 mg/kg/injection, schedule: Q01DX001 (ip), vehicle: saline
[19] = dose: 100.0 mg/kg/injection, schedule: Q01DX009 (ip), vehicle: Klucel (hydroxypropylcellulose) (HPC)
[20] = dose: 400.0 mg/kg/injection, schedule: Q01DX001 (ip), vehicle: Klucel (hydroxypropylcellulose) (HPC)
[21] = dose: 100.0 mg/kg/injection, schedule: Q04DX002 (ip), vehicle: saline with Tween-80
[22] = dose: 200.0 mg/kg/injection, schedule: Q04DX002 (ip), vehicle: saline with Tween-80
[23] = dose: 400.0 mg/kg/injection, schedule: Q04DX002 (ip), vehicle: saline with Tween-80
[24] = dose: 100.0 mg/kg/injection, schedule: Q04DX003 (ip), vehicle: Klucel (hydroxypropylcellulose) (HPC)
[25] = dose: 200.0 mg/kg/injection, schedule: Q04DX003 (ip), vehicle: Klucel (hydroxypropylcellulose) (HPC)
[26] = dose: 400.0 mg/kg/injection, schedule: Q04DX003 (ip), vehicle: Klucel (hydroxypropylcellulose) (HPC)

Measured: T/C

OC1CC[N-]CC1.OC1CC[N-]CC1.[Cl][Pt+2]([Cl])([Cl])[Cl]
inactive: dose: 12.5 mg/kg/injection, schedule: Q01DX009 (ip), vehicle: saline with Tween-80 100 % of control | dose: 25.0 mg/kg/injection, schedule: Q01DX009 (ip), vehicle: saline with Tween-80 103 % of control | dose: 25.0 mg/kg/injection, schedule: Q04DX003 (ip), vehicle: saline with Tween-80 100 % of control | dose: 50.0 mg/kg/injection, schedule: Q01DX009 (ip), vehicle: saline with Tween-80 92 % of control | dose: 50.0 mg/kg/injection, schedule: Q04DX003 (ip), vehicle: saline with Tween-80 107 % of control | dose: 100.0 mg/kg/injection, schedule: Q04DX003 (ip), vehicle: saline with Tween-80 112 % of control and 119 % of control

CCOC(=O)CC(CC(=O)OCC)NC(=O)c1ccc(N(C)C=O)cc1
inactive: dose: 100.0 mg/kg/injection, schedule: Q01DX001 (ip), vehicle: other 100 % of control | dose: 200.0 mg/kg/injection, schedule: Q01DX001 (ip), vehicle: other 102 % of control | dose: 400.0 mg/kg/injection, schedule: Q01DX001 (ip), vehicle: other 97 % of control

CC(C)OC(=O)c1ccc([N+](=O)[O-])cc1
inactive: [1] 95 % of control | [2] 110 % of control | [3] 95 % of control

N=C(N)Sc1cnc2ccccc2n1
inactive: [4] 95 % of control | [5] 97 % of control | [6] 105 % of control

Cc1ccc(C)c(NC(=O)C2CCCCC2C(=O)O)c1 (stereo not given)
inactive: [1] 118 % of control | [2] 96 % of control | [3] 103 % of control

COc1cc(C(N)=O)cc(OC)c1O
inactive: [7] 92 % of control | [8] 97 % of control | [9] 103 % of control | [10] 108 % of control | [11] 113 % of control | [12] 100 % of control

CCCCC(C=NCC(CCCC)(CCN1CCOCC1)c1cccc2ccccc12)(CCN1CCOCC1)c1cccc2ccccc12 (stereo not given)
inactive: [7] 100 % of control | [9] 96 % of control | [11] 88 % of control

O=S(=O)(CC12CC1(O)C1CCC2C1)c1ccccc1 (stereo not given)
inactive: [13] 104 % of control | dose: 50.0 mg/kg/injection, schedule: Q01DX009 (ip), vehicle: saline 104 % of control | [4] 108 % of control | [7] 93 % of control | [8] 103 % of control | [5] 103 % of control | [10] 100 % of control | [6] 107 % of control

O=C1CCc2cc(Cl)ccc2O1
inactive: dose: 50.0 mg/kg/injection, schedule: Q01DX001 (ip), vehicle: carboxymethylcellulose (CMC) 103 % of control | [14] 100 % of control | [15] 103 % of control | dose: 400.0 mg/kg/injection, schedule: Q01DX001 (ip), vehicle: carboxymethylcellulose (CMC) 94 % of control

CCOP(=O)(/C=C/c1ccccc1)OCC
inactive: [8] 109 % of control | [10] 98 % of control | [12] 87 % of control

O=c1[nH]c(Cc2ccc([N+](=O)[O-])cc2)c(Br)c(=O)[nH]1
inactive: dose: 50.0 mg/kg/injection, schedule: Q01DX001 (ip), vehicle: Klucel (hydroxypropylcellulose) (HPC) 103 % of control | [16] 92 % of control | [17] 92 % of control

O=P1(Nc2ccccc2)OCCCN1Cc1ccc(Cl)c(Cl)c1 (stereo not given)
inactive: [18] 96 % of control | [4] 102 % of control | [5] 90 % of control | [6] 102 % of control

CC(C)n1cnc2c(=S)nc[nH]c21
inactive: dose: 3.12 mg/kg/injection, schedule: Q01DX Z (ip), vehicle: carboxymethylcellulose (CMC) 106 % of control | dose: 7.25 mg/kg/injection, schedule: Q01DX Z (ip), vehicle: carboxymethylcellulose (CMC) 103 % of control | dose: 7.25 mg/kg/injection, schedule: Q01DX Z (oral), vehicle: carboxymethylcellulose (CMC) 110 % of control | dose: 14.5 mg/kg/injection, schedule: Q01DX Z (ip), vehicle: carboxymethylcellulose (CMC) 110 % of control | dose: 14.5 mg/kg/injection, schedule: Q01DX Z (oral), vehicle: carboxymethylcellulose (CMC) 118 % of control | dose: 29.0 mg/kg/injection, schedule: Q01DX Z (ip), vehicle: carboxymethylcellulose (CMC) 116 % of control | dose: 210.0 mg/kg/injection, schedule: Q01DX Z (ip), vehicle: carboxymethylcellulose (CMC) 90 % of control
active: dose: 58.0 mg/kg/injection, schedule: Q01DX Z (oral), vehicle: carboxymethylcellulose (CMC) 152 % of control

COc1ccc(N=C(C)CC(C)=O)cc1
inactive: [16] 101 % of control | [19] 108 % of control | [17] 103 % of control | dose: 200.0 mg/kg/injection, schedule: Q01DX009 (ip), vehicle: Klucel (hydroxypropylcellulose) (HPC) 97 % of control | [20] 101 % of control | dose: 400.0 mg/kg/injection, schedule: Q01DX009 (ip), vehicle: Klucel (hydroxypropylcellulose) (HPC) 102 % of control

c1ccc(CN2CCNCC2)cc1
inactive: dose: 6.25 mg/kg/injection, schedule: Q01DX009 (ip), vehicle: saline 93 % of control | dose: 12.5 mg/kg/injection, schedule: Q01DX009 (ip), vehicle: saline 93 % of control | [13] 94 % of control

C=Cc1ccc(C(=O)O)cc1
inactive: [21] 98 % of control | [22] 98 % of control | [23] 106 % of control

CC1CC(O)=C(c2ccccc2)P1(=O)Cc1ccccc1 (stereo not given)
inactive: [24] 95 % of control | [25] 95 % of control | [26] 89 % of control

N#CCc1ccc(C(=O)O)cc1
inactive: [14] 106 % of control | [15] 92 % of control

C=CC[P+](Cc1cccc(OC)c1)(c1ccccc1)c1ccccc1
inactive: dose: 6.25 mg/kg/injection, schedule: Q04DX003 (ip), vehicle: saline 98 % of control | dose: 12.5 mg/kg/injection, schedule: Q04DX003 (ip), vehicle: saline 98 % of control | dose: 25.0 mg/kg/injection, schedule: Q04DX003 (ip), vehicle: saline 98 % of control | dose: 50.0 mg/kg/injection, schedule: Q04DX003 (ip), vehicle: saline 93 % of control

O=C1c2c(cccc2NCCO)Cc2cccc(NCCO)c21
inactive: [16] 102 % of control | [24] 98 % of control | [17] 104 % of control | [25] 93 % of control | [20] 96 % of control | [26] 96 % of control

C/C(CCC(=O)OC(C)(C)C)=N\N(C)C
inactive: [8] 93 % of control | [10] 91 % of control | [12] 111 % of control

CC(C)(C)OC(=O)NC(CC(=O)OCc1ccccc1)C(=O)O (stereo not given)
inactive: [19] 87 % of control | [24] 93 % of control | [25] 95 % of control | [26] 106 % of control

Clc1ccccc1C(N1CCCCC1)C(Cl)(Cl)Cl (stereo not given)
inactive: dose: 100.0 mg/kg/injection, schedule: Q04DX002 (ip), vehicle: saline 92 % of control | dose: 200.0 mg/kg/injection, schedule: Q04DX002 (ip), vehicle: saline 90 % of control | dose: 400.0 mg/kg/injection, schedule: Q04DX002 (ip), vehicle: saline 92 % of control

CCOc1nc(N)nc2c1-c1ccc(OC)cc1CC2
inactive: [21] 91 % of control | [22] 102 % of control | [23] 87 % of control

C[n+]1cc2cc(O)c(O)cc2c2ccc3cc(O)c(O)cc3c21
inactive: dose: 40.0 mg/kg/injection, schedule: Q01DX009 (ip), vehicle: saline 102 % of control | dose: 80.0 mg/kg/injection, schedule: Q01DX009 (ip), vehicle: saline 107 % of control | dose: 120.0 mg/kg/injection, schedule: Q01DX009 (ip), vehicle: saline 98 % of control | dose: 240.0 mg/kg/injection, schedule: Q01DX009 (ip), vehicle: saline 98 % of control

COc1cc(OC)c2c(=O)c(O)c(-c3ccc(OC)c(OC)c3)oc2c1
inactive: [18] 91 % of control | [4] 98 % of control | [5] 98 % of control | [6] 96 % of control
